In ChEMBL document CHEMBL1201862, “PubChem BioAssay data set” (2004):
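Growth conditions: 96-well plates. Treatment: test compound, 48 hours, 5 concentrations. Analysis: linear interpolation between bracketing concentrations; unreached endpoints set to highest concentration. At the GI50, growth is halved.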 The source made the active and inactive calls. Rule as the data show it: active = GI50 up to about 1.1 µM and inactive = higher.

Assays:
Experiment in all cases: NCI anticancer screen, dose series, 48 h
[1] = system: XF498
[2] = system: DLD-1
[3] = system: LXFL 529
[4] = system: SNB-78
[5] = system: KM-20L2
[6] = system: M19-MEL
[7] = system: DMS-273
[8] = system: RXF 631
[9] = system: HOP-18

SMILES	GI50 [1]	GI50 [2]	GI50 [3]	GI50 [4]	GI50 [5]	GI50 [6]	GI50 [7]	GI50 [8]	GI50 [9]
COc1ccc(CCc2cc(OC)c(O)c(OC)c2)cc1	79.4 µM (inactive)	60.1 µM (inactive)	54.8 µM (inactive)	30.9 µM (inactive)	> 100 µM (inactive)	57.1 µM (inactive)	46.5 µM (inactive)	88.1 µM (inactive)	
CCCCC1CC(c2ccc(Cl)cc2)=NO1 (stereo not drawn)		> 100 µM (inactive)	> 100 µM (inactive)	> 100 µM (inactive)		> 100 µM (inactive)	> 100 µM (inactive)		> 100 µM (inactive)
CCC[C@H]1O[C@@H]2CC(=O)O[C@@H]2C2=C1C(=O)C=CC2=O		17.7 µM (inactive)	15.6 µM (inactive)	23.3 µM (inactive)	21.4 µM (inactive)	20.3 µM (inactive)	13.6 µM (inactive)		18 µM (inactive)
CC(=O)C1Cn2c(nc3ccccc32)C[Se]1 (stereo not drawn)		3.63 µM (inactive)	3.2 µM (inactive)	4.47 µM (inactive)	12.9 µM (inactive)	1.99 µM (inactive)		2.14 µM (inactive)	2.61 µM (inactive)
Cc1ccccc1-n1c(C)nc2c1C(=O)c1ccccc1C2=O				58.2 µM (inactive)		22.8 µM (inactive)	42.5 µM (inactive)		
COc1ccc(OC)c(NC(=O)C(=O)NNC(=O)c2sc(NNC(C)=O)nc2C)c1	25.6 µM (inactive)		29.4 µM (inactive)	27 µM (inactive)	33.4 µM (inactive)	60.1 µM (inactive)			
CC#CC1C2CCCC1(CSc1ccccc1)NC(=O)O2 (stereo not drawn)	> 100 µM (inactive)	> 100 µM (inactive)	> 100 µM (inactive)	> 100 µM (inactive)	> 100 µM (inactive)	> 100 µM (inactive)	> 100 µM (inactive)	> 100 µM (inactive)	> 100 µM (inactive)
C=C1C(=O)OC2/C=C(\C)C3OC3/C=C(/C(=O)OC)C(O)C(OC(=O)C3(C)OC3C)C12 (stereo not drawn)		1.03 µM (active)	1.36 µM (inactive)	1.79 µM (inactive)			1.59 µM (inactive)		
O=C(c1ccc(Cl)cc1Cl)N(/N=C/C=C/c1ccccc1)c1nnc(-c2ccccc2)c(-c2ccccc2)n1	> 100 µM (inactive)	> 100 µM (inactive)		> 100 µM (inactive)	> 100 µM (inactive)	> 100 µM (inactive)	> 100 µM (inactive)	> 100 µM (inactive)	
COc1cc(OC(=O)c2c(O)cc(O)c(O)c2C)cc(C)c1C(=O)Oc1cc(C)c(C(=O)O)c(O)c1	> 100 µM (inactive)	> 100 µM (inactive)	> 100 µM (inactive)	> 100 µM (inactive)	> 100 µM (inactive)	> 100 µM (inactive)	> 100 µM (inactive)	> 100 µM (inactive)	> 100 µM (inactive)
COc1ccccc1NC(=O)C1=C(C)NC(C)=C(C(=O)Nc2ccccc2OC)C1/C=C/c1ccccc1		> 100 µM (inactive)	84.9 µM (inactive)	54.8 µM (inactive)	> 100 µM (inactive)	> 100 µM (inactive)	> 100 µM (inactive)		> 100 µM (inactive)
CC(C)CC(N)C(=O)OCN1C(=O)C2C3C=CC(C2C1=O)C1C2C(=O)N(COC(=O)C(N)CC(C)C)C(=O)C2C31 (stereo not drawn)		> 86.7 µM (inactive)	> 100 µM (inactive)	> 100 µM (inactive)	> 100 µM (inactive)		97.3 µM (inactive)	> 100 µM (inactive)	> 100 µM (inactive)
COc1cccc(N2C(=O)[C@H]3CC(C)c4c([nH]c5ccccc45)[C@H]3C2=O)c1 (stereo partly drawn)	55.7 µM (inactive)	80.5 µM (inactive)	42.8 µM (inactive)	33.3 µM (inactive)	> 100 µM (inactive)	86.1 µM (inactive)	79.4 µM (inactive)		
CSc1ccc(/C=C2/C[N+](C)(C)C/C(=C/c3ccc(SC)cc3)C2=O)cc1	15.7 µM (inactive)	7.78 µM (inactive)		62.2 µM (inactive)		6.25 µM (inactive)		35.2 µM (inactive)	31.8 µM (inactive)
CCOC(=O)c1cc2c(OCc3ccccc3)c(OC)cc3c2c(n1)N(c1ccc(OC)cc1)C(C)C3 (stereo not drawn)	> 50 µM (inactive)	> 50 µM (inactive)	39.4 µM (inactive)		2.47 µM (inactive)	> 50 µM (inactive)	> 50 µM (inactive)		> 50 µM (inactive)
O=c1c2ccccc2nc(-c2ccccc2)n1NC(=S)Nc1ccc(Cl)cc1[N+](=O)[O-]		87.9 µM (inactive)	> 100 µM (inactive)			54.1 µM (inactive)	49.8 µM (inactive)		27.4 µM (inactive)
c1cc2[se][se]c3c4cccc5[se][se]c(c(c1)c23)c54	> 100 µM (inactive)	> 100 µM (inactive)	> 100 µM (inactive)	> 100 µM (inactive)	> 100 µM (inactive)	> 100 µM (inactive)	> 100 µM (inactive)		0.331 µM (active)
COc1cc2c(c(OC)c1OC)-c1cccc(=O)cc1C(NC(C)=O)CC2 (stereo not drawn)	0.117 µM (active)		0.125 µM (active)	0.0859 µM (active)	0.12 µM (active)	0.605 µM (active)	0.0509 µM (active)		> 100 µM (inactive)
O=C(O)c1cc(=O)c2cc(C(=O)c3cccs3)c(Cl)c(Cl)c2o1		> 100 µM (inactive)	> 100 µM (inactive)	> 100 µM (inactive)	> 100 µM (inactive)				
COc1ccc(COCC(Cn2ccnc2)OCc2ccc(C(=O)O)cc2)cc1 (stereo not drawn)	> 100 µM (inactive)	> 100 µM (inactive)	> 100 µM (inactive)	> 100 µM (inactive)	> 100 µM (inactive)	> 100 µM (inactive)		> 100 µM (inactive)	
Cc1cc(O)c2c(c1)C[C@@H](O)C1=C2C(=O)c2c(O)ccc(OC3CC(O)C(OC4CC(OC5CCC(OC6CC(O)C(OC7CC(OC8CCC(O)C(C)O8)C(O)C(C)O7)C(C)O6)C(C)O5)C(O)C(C)O4)C(C)O3)c2C1=O (stereo partly drawn)	0.0247 µM (active)	0.0173 µM (active)	0.0155 µM (active)	0.0245 µM (active)	0.0461 µM (active)	0.00411 µM (active)	0.0209 µM (active)		0.0403 µM (active)
